Data reported in ChEMBL document CHEMBL1128996, “Synthesis and preliminary pharmacological evaluation of analogues of caracasanamide, a hypotensive natural product” (1996).

Tests used:
Rattus norvegicus [1] = assay: Compound was tested for its effect on diastolic blood pressure in anaesthetized rats after i.v. administration at a dose of 4.12 umol/kg.; type: functional, Artery
Rattus norvegicus [2] = assay: Compound was tested for its effect on systolic blood pressure in anaesthetized rats after i.v. administration at a dose of 4.12 umol/kg.; type: functional, Artery
Rattus norvegicus [3] = assay: Compound was tested for its effect on heart rate in anaesthetized rats after i.v. administration at a dose of 4.12 umol/kg.; type: functional
Rattus norvegicus [4] = assay: Compound was tested for its effect on respiratory frequency in anaesthetized rats after i.v. administration at a dose of 4.12 umol/kg.; type: functional
Rattus norvegicus [5] = organism: Rattus norvegicus; assay: Compound was tested for cardiac ionotropism and expressed as dP/dtmax.; type: functional; design: concentration or dose not given beside the values
Rattus norvegicus [6] = assay: Compound was tested for its effect on heart rate in anaesthetized rats after i.v. administration at a dose of 4.12 umol/kg; type: functional

Structure (SMILES)	Activity (Rattus norvegicus [1]) [delta mmHg]	Activity (Rattus norvegicus [2]) [delta mmHg]	HR (Rattus norvegicus [3]) [delta beats min-1]	RF (Rattus norvegicus [4]) [delta beats min-1]	dP/dt max (Rattus norvegicus [5]) [mmHg s-1]	HR (Rattus norvegicus [6]) [delta beats min-1]
COc1ccc(C(=O)NCCCC/N=C(\N)NCC=C(C)C)cc1.CS(=O)(=O)O	-35	-26	-16	17	3249	–
COc1ccc(CCC(=O)NCCCC/N=C(\N)NCC=C(C)C)cc1OC.CS(=O)(=O)O	-14	-15	-12	6	2252	–
COc1ccc(/C=C/C(=O)NCCCCCC/N=C(\N)NCC=C(C)C)cc1OC.CS(=O)(=O)O	-8	-9	–	4	648	4
CC(C)=CC/N=C(/N)NCCCCNC(=O)/C=C/c1ccccc1.CS(=O)(=O)O	-59	-47	19	12	6070	–
COc1ccc(C#CC(=O)NCCCC/N=C(\N)NCC=C(C)C)cc1OC.CS(=O)(=O)O	-24	-14	14	14	3424	–
COc1ccc([C@H]2C[C@@H]2C(=O)NCCCC/N=C(\N)NCC=C(C)C)cc1OC.CS(=O)(=O)O	-26	-30	-19	19	2781	–
COc1ccc(/C=C/C(=O)NCCCCC/N=C(\N)NCC=C(C)C)cc1OC.CS(=O)(=O)O	-40	-34	–	-10	5028	8
COc1ccc(/C=C/C(=O)NCCCC/N=C(\N)NCC=C(C)C)cc1OC.CS(=O)(=O)O	-18	-21	22	23	2996	–
COc1ccc(CC(=O)NCCCC/N=C(\N)NCC=C(C)C)cc1OC.CS(=O)(=O)O	-31	-22	-24	16	3088	–
